# Assay results published in patent US7005258B1, “Cdc25 genes, encoded products and uses thereof” (The National Institutes of Health, priority 1991, dated 2006).
# pIC50: −log10 of the molar value.
# Target: T1, GST-cdc25A phosphatase (Homo sapiens, UniProt P30304)
# T1 construct: made in house; host or cells: E. coli BL21(DE3)
# T1 sequence (P30304 1-524): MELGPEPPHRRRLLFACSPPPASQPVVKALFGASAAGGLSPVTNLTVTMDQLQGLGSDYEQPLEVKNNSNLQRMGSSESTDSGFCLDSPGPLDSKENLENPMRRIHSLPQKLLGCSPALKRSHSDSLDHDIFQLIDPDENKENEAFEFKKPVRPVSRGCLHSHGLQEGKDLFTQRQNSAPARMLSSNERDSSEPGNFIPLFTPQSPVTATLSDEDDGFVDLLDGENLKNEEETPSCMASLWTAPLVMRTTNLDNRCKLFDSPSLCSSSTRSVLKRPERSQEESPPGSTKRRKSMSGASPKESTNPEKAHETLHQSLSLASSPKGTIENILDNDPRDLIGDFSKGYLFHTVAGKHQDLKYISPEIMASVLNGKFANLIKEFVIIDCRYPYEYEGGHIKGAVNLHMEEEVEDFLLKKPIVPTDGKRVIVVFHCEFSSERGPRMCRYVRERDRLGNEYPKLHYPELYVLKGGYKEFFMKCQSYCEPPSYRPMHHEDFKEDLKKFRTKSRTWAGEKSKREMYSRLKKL
# Assay: GST-cdc25A phosphatase activity towards p-nitrophenylphosphate (microtitration plate assay)
# Assay type: biochemical
# Method: One ml assay: 100 μl of GST-cdc25A protein (diluted to an activity of ∂ OD 410 nm=0.3/10 min) were mixed with 100 μl […] (in Tris buffer A) and 700 μl of Tris buffer A. The assay was initiated by addition of 100 μl 500 mM p-NPP (in Tris buffer A). After 10 min incubation at 37° C., the assay was terminated by addition of 40 μl 5 N NaOH and transfer of the tubes to 4° C. Absorbance at 410 nm was then measured and blank values (no GST-cdc25A protein but 10 min incubation) were subtracted.
# This assay was then scaled down to 200 μl and conducted semi-automatically in 96-wells microtitration plates, as described in detail below. Each well was filled with 20 μl GST-cdc25A phosphatase, 140 μl Tris buffer A, 20 μl 100 mM DTT (in Tris buffer A); after 15 min equilibration at 37° C., reaction was initiated by addition of 20 μl 500 mM p-NPP (in Tris buffer A). After 60 min incubation absorbance at 405 nm was monitored in a microplate reader; blank values (no GST-cdc25A added) were subtracted.
# Microtitration plate assay: 20 μl of GST-cdc25A protein (diluted to an activity of a ∂ OD 405 nm=0.2–0.3/60 min) were mixed with 20 μl 100 mM DTT (in Tris buffer A) and 140 μl of Tris buffer A, in 96-wells microtitration plates (Corning). The plates were preincubated at 37° C. for 15 min in a Denley Wellwarm 1 microplate incubator. The assays were initiated by addition of 20 μl of 500 mM p-NPP (in Tris buffer A). After 60 min incubation at 37° C. absorbance at 405 nm was measured in a bioRad microplate reader. Blank values (no CST-cdc25A protein added) were automatically subtracted.
# In a series of experiments various antimitotic compounds currently used in cancer therapy were tested as potential inhibitors of the phosphatase (the Table). Most of them are reported to act as DNA damaging agents, as DNA intercalators, as topoisomerase 2 inhibitors or as compounds interfering with spindle microtubles. […] As a positive control vanadate, a reported inhibitor of tyrosine phosphatases was also tested (Gordon, J. A., 1Methods in Enzymology pp. 447–482 (1991)).
structure (smiles),measurement,setting,value
"[Na+].[Na+].[Na+].[O]=[V]([O-])([O-])[O-] [vanadate, sodium orthovanadate]",inhibition of GST-cdc25A phosphatase,at concentrations above 500 μM,totally inhibits
same,inhibition of cdc25 / GST-cdc25A phosphatase (summary statement),concentration not given,totally inhibit
same,pIC50,"p-NPP substrate, FIG. 14, read-out: I50, inhibition of GST-cdc25A phosphatase",4.70
